Laboratory results published in patent US20240254508A1, “Multi-Genome Editor Construct and Uses Thereof” (Colossal Biosciences Inc., priority 2023, published 2024).

How the values were obtained:
[1] = system: HEK293T cells; experiment: Transient induction of single module plasmids in HEK293T cells; type: cell-based; conditions: 2 μg/ml doxycycline, 120 μg/ml cumate, 10 μM TMP, 6.25 μM shield 1
Protocol: HEK293T cells were transfected with the single module plasmids comprising the corresponding regulatory element. The HEK293T cells were treated with the corresponding inducers to generate expression of the genome editing enzyme along with the fluorescent marker accompanying each genome editing enzyme. HEK293T cells were transfected with a doxycycline inducible Cas9 editing enzyme, a cumate inducible ABE, a trimethoprim (TMP) inducible CBE, and a shield 1 inducible CGBE.

[2] = system: Super Editor incorporated HEK293T cells; experiment: Editing enzyme induction in Super Editor incorporated HEK293T cells (fluorescent imaging / FACS); type: cell-based; conditions: 1/5/10 μg/mL doxycycline, 30/120/300 μg/mL cumate, 10/40/100 μM TMP, 0.25/1.25/6.25 μM Shield 1, 24-72 hours after treatment
Protocol: FIGS. 3A-3D show fluorescence-activated cell sorting (FACS) of individual editor induction by super editor integrated HEK293T cells. FACS analysis was done for doxycycline induced Cas9 expression (FIG. 3A), cumate induced ABE expression (FIG. 3B), trimethoprim induced CBE expression (FIG. 3C), and shield 1 induced CGBE expression (FIG. 3D). Cells were fixed 72 hours after treatment for FACS quantification. Bar graphs plotting the induction ratios of each dose curve are provided for each different genome editor enzyme induction (FIGS. 3A-3D).
Incorporation of Super Editor in HEK293T cells: 300,000 HEK293T cells were transfected by 4 μg of Super Editor plasmid and 3 μg PiggyBac transposase plasmid using 10 μL of Lipofectamine 2000 according to the manufacturer's protocol in a 6-well plate format. 2 μg/mL doxycycline was supplemented to the cells 48 hours in advance. The transfected cells were enriched twice by Fluorescence-activated cell sorting (FACS) gated with doxycycline induced TagRFP657 (far red) fluorescent signals 1 week and 3 weeks after transfection. The 1st enrichment selected the top 0.2% (10,000 cells) of the TagRFP657+ population. The 2nd enrichment selected the top 5% (374,000 cells) of the TagRFP657+ population.
Doxycycline induced Cas9, reported by TagRFP657 (far red); cumate induced ABE, reported by TagBFP (blue); trimethoprim induced CBE reported by, eGFP (green); Shield 1 induced CGBE, reported by mCherry (red). Cells were analyzed by fluorescent imaging or FACS 24-72 hours after treatment. FACS analysis was performed on 4% PFA fixed samples (FIGS. 3A-3D). Inducers were refreshed everyday with new media.

| SMILES | expression of genome editing enzyme and fluorescent marker after inducer treatment [1] | induction of editing enzyme expression, reported by fluorescent protein [2] |
| --- | --- | --- |
| CC(C)c1ccc(C(=O)O)cc1 [cumate] | ABE and BFP were expressed | induced ABE |
| COc1cc(Cc2cnc(N)nc2N)cc(OC)c1OC [trimethoprim] | CBE and eGFP were expressed | induced CBE |
| CC[C@H](C(=O)N1CCCC[C@H]1C(=O)O[C@H](CCc1ccc(OC)c(OC)c1)c1cccc(OCCN2CCOCC2)c1)c1cc(OC)c(OC)c(OC)c1 [Shield 1] | CGBE and mCherry were expressed | induced CGBE |
